Laboratory results taken from patent US8916543B1 (priority 2009, dated 2014).
“Also recorded” adds a separate entry of the source.

Tests used:
[1] = test system: S. aureus strain 8325-4; assay: Experimental keratitis in rabbits, S. aureus strain 8325-4, topical treatment; assay type: in vivo, Staphylococcus aureus; conditions: rabbit eyes
Experimental: FIG. 4 is a set of graphs that show the effect of CD-cholesterol treatment of eyes infected with strain 8325-4. Rabbit corneas were injected with 10^2 CFU of S. aureus 8325-4. Eyes were randomized and treated with 1% CD-cholesterol, 1% CD, or PBS from 7 to 13 hours PI. At 7 hours PI, eyes were treated with a single topical drop every 15 minutes from 7 to 8 hours PI. At 8.5 hours PI, eyes were treated with a single topical drop every 30 minutes until 13 hours PI (a total of 15 drops). At 13 hours PI, the eyes were evaluated by SLE (A) and erosion diameters were measured using fluorescein strips (B) The pathologic changes were observed then averaged and statistical comparisons were performed using one-way ANOVA. The erosions were averaged and statistical comparisons using analysis of variance and Student's t-test were performed. Error bars are the standard error of the mean (SEM). P≦0.05, for either test, was considered significant. […] The eyes treated with 1% CD or with PBS had statistically similar SLE scores (P=0.4002). […] The eyes treated with 1% CD-cholesterol or 1% CD had erosion diameters similar to one another (P=0.4002).
(§1) Rabbits (n≧4 eyes per group) were infected as previously described, injecting approximately 100 colony forming units (CFU) of strain 8325-4 or strain 60171, a clinical isolate, in 10 μL of TSB into the stroma of the cornea. Accuracy of the inoculum size was verified by plating aliquots (100 μL) of serial dilutions in triplicate on TSA.
At 7 hours postinfection (PI), treatment began and consisted of a single topical drop of PBS, 1% CD, or 1% CD-cholesterol every 15 minutes from 7 to 8 hours PI. Then, beginning at 8.5 hours PI, a single drop was administered every 30 minutes until 13 hours PI; a total of 15 drops per eye. At 13 hours PI, corneal erosions were measured and all eyes underwent slit lamp examination (SLE) to quantify pathologic changes. […]
Corneas of rabbits infected with either S. aureus 8325-4 or 60171 were harvested at 14 hours PI and bacteria were quantified as described previously. […]

[2] = test system: S. aureus strain 60171; assay: Experimental keratitis in rabbits, S. aureus clinical isolate 60171, topical treatment; assay type: in vivo, Staphylococcus aureus; conditions: rabbit eyes
Experimental: FIG. 5 is a set of graphs that show the effect of CD-cholesterol treatment of eyes infected with strain 60171. Eyes were treated and evaluated as described for FIG. 3. Error bars are the SEM. […] In contrast, the CD-treated eyes had similar SLE scores compared to the PBS-treated eyes (P=0.7403). […] There was no statistical difference between the eyes treated with 1% CD and the eyes treated with PBS (P=0.2131).
as §1
At 7 hours postinfection (PI), treatment began and consisted of a single topical drop of PBS, 1% CD, or 1% CD-cholesterol every 15 minutes from 7 to 8 hours PI. Then, beginning at 8.5 hours PI, a single drop was administered every 30 minutes until 13 hours PI; a total of 15 drops per eye. At 13 hours PI, corneal erosions were measured and all eyes underwent slit lamp examination (SLE) to quantify pathologic changes.
SLE of pathologic changes of rabbit eyes was performed by two masked observers as described previously.
Corneas of rabbits infected with either S. aureus 8325-4 or 60171 were harvested at 14 hours PI and bacteria were quantified as described previously.
These finding raised the possibility that CD-cholesterol could treat corneas infected with S. aureus. Rabbit corneas were injected with either S. aureus strain 8325-4 or S. aureus clinical isolate 60171. Rabbit eyes were treated from 7 to 13 hours PI with PBS, 1% CD, or 1% CD-cholesterol. […]
Strain 60171, an ocular clinical isolate, was injected into the corneas of rabbits to determine the effectiveness of treatments with CD-cholesterol, CD, or PBS. As described above, the pathologic changes and erosion development were observed via SLE at 13 hours PI (FIG. 2B) whereas the number of surviving bacteria was determined at 14 hours PI.

[3] = molecular target: T1, α-toxin (Staphylococcus aureus, UniProt P09616); assay type: cell-based
[4] = molecular target: α-toxin heptamer (Staphylococcus aureus, UniProt P09616); conditions: literature; cited from earlier work
[5] = molecular target: T1, α-toxin; conditions: cited from earlier work
[6] = 1% topical drops 7 to 13 hours PI (15 drops), 13 hours PI
[7] = 1% topical drops 7 to 13 hours PI, 13 hours PI
[8] = 1% topical drops 7 to 13 hours PI, 14 hours PI

T1 sequence (P09616 27-319 limits assumed): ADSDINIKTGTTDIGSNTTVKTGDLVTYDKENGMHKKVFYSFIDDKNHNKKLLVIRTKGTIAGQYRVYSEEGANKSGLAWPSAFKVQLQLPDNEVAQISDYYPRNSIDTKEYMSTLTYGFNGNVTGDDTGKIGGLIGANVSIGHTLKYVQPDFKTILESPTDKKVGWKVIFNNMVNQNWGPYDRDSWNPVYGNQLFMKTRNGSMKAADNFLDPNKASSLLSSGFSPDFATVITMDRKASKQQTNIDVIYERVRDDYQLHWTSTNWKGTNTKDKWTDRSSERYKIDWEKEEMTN
Sequence of α-toxin heptamer (P09616 27-319 limits assumed): as above

Molecule	average SLE score [1, 6]	corneal erosion diameter [1, 7]	number of surviving S. aureus [1, 8]	average SLE score [2, 6]	diameter of corneal epithelial erosions [2, 7]	bacteria in the corneas [2, 8]	reduction in α-toxin hemolytic titer [3]	binding to the pore of α-toxin heptamer [4]	inhibition of α-toxin activity [5]
methyl-β-cyclodextrin [CD]	9.23±0.39	4.55±0.28 mm	9.36×10^6±4.22×10^5 bacteria per cornea	9.02±0.90	4.83±0.31 mm	2.42×10^7±8.96×10^6 bacteria	twofold; also recorded: two-fold	bind weakly	–
C[C@]12CCC(=O)C=C1CC[C@@H]1[C@@H]2[C@@H](O)C[C@@]2(C)[C@H]1CC[C@]2(O)C(=O)CO [hydrocortisone]	–	–	–	–	–	–	–	–	weakly inhibited
